Patent US8916565B2, “Pyrrolopyrazine-spirocyclic piperidine amides as modulators of ion channels” (priority 2011, dated 2014)
pIC50: −log10 of the molar value.

Target: human NaV subtype, like NaV 1.7 (Homo sapiens, UniProt Q15858)
Experiment: E-VIPR optical membrane potential assay with electrical stimulation
Type: cell-based
Conditions: active against one or more sodium channels; Table 3 does not name the assay or NaV subtype; read-out: Binned Activity Data (IC50)

Sequence of human NaV subtype, like NaV 1.7 (Q15858 whole entry): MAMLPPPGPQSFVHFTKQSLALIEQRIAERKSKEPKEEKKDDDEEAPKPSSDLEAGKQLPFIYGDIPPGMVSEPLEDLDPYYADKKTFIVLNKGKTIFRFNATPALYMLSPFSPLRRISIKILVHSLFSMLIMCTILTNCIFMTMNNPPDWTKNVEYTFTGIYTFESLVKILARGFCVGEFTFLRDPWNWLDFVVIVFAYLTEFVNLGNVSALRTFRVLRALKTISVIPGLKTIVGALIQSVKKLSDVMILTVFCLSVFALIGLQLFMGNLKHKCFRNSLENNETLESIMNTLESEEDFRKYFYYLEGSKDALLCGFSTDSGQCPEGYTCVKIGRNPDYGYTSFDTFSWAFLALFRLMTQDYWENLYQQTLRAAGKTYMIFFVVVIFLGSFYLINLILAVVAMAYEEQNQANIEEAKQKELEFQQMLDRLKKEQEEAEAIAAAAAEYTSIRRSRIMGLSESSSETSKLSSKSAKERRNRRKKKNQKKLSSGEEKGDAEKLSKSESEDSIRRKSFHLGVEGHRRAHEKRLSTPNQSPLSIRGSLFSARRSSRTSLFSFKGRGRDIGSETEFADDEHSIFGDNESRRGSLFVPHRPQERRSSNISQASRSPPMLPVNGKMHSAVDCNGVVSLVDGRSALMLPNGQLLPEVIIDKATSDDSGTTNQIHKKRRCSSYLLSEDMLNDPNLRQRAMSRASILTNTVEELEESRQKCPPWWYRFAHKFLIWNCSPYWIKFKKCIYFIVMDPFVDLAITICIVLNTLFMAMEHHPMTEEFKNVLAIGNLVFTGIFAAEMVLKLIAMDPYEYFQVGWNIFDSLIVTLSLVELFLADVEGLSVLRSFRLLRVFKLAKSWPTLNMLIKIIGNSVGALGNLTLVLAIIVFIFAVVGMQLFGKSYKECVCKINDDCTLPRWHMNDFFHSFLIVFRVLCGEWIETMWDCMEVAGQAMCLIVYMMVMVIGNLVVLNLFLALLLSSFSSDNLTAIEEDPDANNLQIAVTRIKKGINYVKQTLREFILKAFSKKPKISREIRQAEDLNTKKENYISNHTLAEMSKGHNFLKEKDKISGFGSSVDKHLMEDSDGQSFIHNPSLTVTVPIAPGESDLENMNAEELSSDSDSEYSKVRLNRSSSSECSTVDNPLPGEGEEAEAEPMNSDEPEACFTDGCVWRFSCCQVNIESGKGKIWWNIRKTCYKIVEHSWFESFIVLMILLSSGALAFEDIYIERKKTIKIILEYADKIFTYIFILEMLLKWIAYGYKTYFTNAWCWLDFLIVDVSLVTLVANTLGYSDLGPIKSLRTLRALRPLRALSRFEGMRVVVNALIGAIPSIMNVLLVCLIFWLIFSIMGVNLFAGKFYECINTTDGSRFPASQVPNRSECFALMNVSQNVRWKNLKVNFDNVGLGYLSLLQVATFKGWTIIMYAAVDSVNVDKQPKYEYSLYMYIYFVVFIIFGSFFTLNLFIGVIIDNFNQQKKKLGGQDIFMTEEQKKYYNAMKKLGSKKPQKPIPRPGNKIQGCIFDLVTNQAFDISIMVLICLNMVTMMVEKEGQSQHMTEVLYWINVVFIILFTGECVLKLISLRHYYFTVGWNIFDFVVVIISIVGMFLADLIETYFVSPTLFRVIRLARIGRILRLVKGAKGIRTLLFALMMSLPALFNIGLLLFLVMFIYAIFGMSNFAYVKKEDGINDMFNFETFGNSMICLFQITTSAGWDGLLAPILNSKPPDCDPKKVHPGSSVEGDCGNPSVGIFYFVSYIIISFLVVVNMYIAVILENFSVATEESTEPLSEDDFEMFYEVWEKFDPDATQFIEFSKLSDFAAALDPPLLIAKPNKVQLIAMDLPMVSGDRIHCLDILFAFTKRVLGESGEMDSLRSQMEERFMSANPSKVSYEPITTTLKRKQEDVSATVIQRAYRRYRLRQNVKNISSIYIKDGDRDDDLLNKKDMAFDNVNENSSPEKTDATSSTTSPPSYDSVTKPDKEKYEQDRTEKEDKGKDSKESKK

Row | pIC50 | Compound
1 | ≥ 5.70 | C[C@H]1Cn2c(C(=O)C(F)(F)F)ccc2C2(CCN(C(=O)c3ccc(C(C)(C)O)cc3)CC2)N1C [Compound 349]
2 | < 5.30 | COc1ccc(C(=O)N2CCC3(CC2)c2ccc(C(F)(F)F)n2CCN3C)cc1 [Compound 351]
3 | 5.30 to 5.70 | CN1CCn2c(Cl)ccc2C12CCN(C(=O)c1ccc(S(=O)(=O)NC3CC3)cc1)CC2 [Compound 352]
4 | 5.30 to 5.70 | CN1CCn2c(C(=O)C(F)(F)F)ccc2C12CCN(C(=O)c1ccc(C(C)(C)O)cc1)CC2 [Compound 358]
5 | ≥ 5.70 | CC(C)C(=O)c1ccc2n1CCN(C)C21CCN(C(=O)c2ccc(COCCC(F)(F)F)cc2)CC1 [Compound 359]
6 | ≥ 5.70 | CC(=O)c1ccc2n1C(C)(C)CN(C)C21CCN(C(=O)c2ccc(C3CCCCC3)cc2)CC1 [Compound 361]
7 | ≥ 5.70 | CN1CCn2c(C(=O)C3CC3)ccc2C12CCN(C(=O)c1ccc(C(C)(C)O)c(F)c1)CC2 [Compound 368]
8 | ≥ 5.70 | COc1cc(C(=O)N2CCC3(CC2)c2ccc(C(C)=O)n2CCN3C)ccc1COCCC(F)(F)F [Compound 373]
9 | 5.30 to 5.70 | Cc1cc(C(=O)N2CCC3(CC2)c2ccc(C(=O)C(F)(F)F)n2CCN3C)ccc1F [Compound 376]
10 | ≥ 5.70 | CNS(=O)(=O)c1ccc(C(=O)N2CCC3(CC2)c2ccc(C(F)(F)C(F)(F)F)n2CCN3C)cc1 [Compound 381]
11 | 5.30 to 5.70 | CCc1ccc(C(=O)N2CCC3(CC2)c2ccc(C(C)=O)n2CCN3C)cc1OC [Compound 382]
12 | ≥ 5.70 | CCCCOc1ccc(C(=O)N2CCC3(CC2)c2ccc(Cl)n2CCN3C)cc1 [Compound 386]
13 | ≥ 5.70 | CN1CCn2c(Cl)ccc2C12CCN(C(=O)c1ccc(C(C)(C)O)c(F)c1)CC2 [Compound 387]
14 | < 5.30 | CC(=O)c1ccc2n1CCN(C)C21CCN(C(=O)c2ccc(OCC3CC3)cc2)CC1 [Compound 388]
15 | ≥ 5.70 | CN1CCn2c(C(=O)C(F)(F)F)ccc2C12CCN(C(=O)c1ccc(C3CC3)cc1)CC2 [Compound 389]
16 | ≥ 5.70 | CC(=O)c1ccc2n1CCN(C)C21CCN(C(=O)c2ccc(OC(C)C)c(Cl)c2)CC1 [Compound 398]
17 | < 5.30 | CN1CCn2c(Cl)ccc2C12CCN(C(=O)c1ccc(C3CC3)cc1)CC2 [Compound 400]
18 | 5.30 to 5.70 | CN1CCn2c(C(=O)C(F)(F)F)ccc2C12CCN(C(=O)c1ccc(Oc3ccccc3)cc1)CC2 [Compound 402]
19 | < 5.30 | CN1CCn2c(C(F)(F)F)ccc2C12CCN(C(=O)c1ccc(Cl)cc1)CC2 [Compound 403]
20 | ≥ 5.70 | CCC(C)(C)c1ccc(C(=O)N2CCC3(CC2)NC(C)(C)Cn2c(C(=O)C(F)(F)F)ccc23)cc1 [Compound 408]
21 | ≥ 5.70 | COc1ccc(C(=O)N2CCC3(CC2)c2ccc(C(=O)C(C)C)n2CCN3C)cc1Cl [Compound 413]
22 | < 5.30 | CCOc1ccc(C(=O)N2CCC3(CC2)c2ccc(C(C)=O)n2CCN3C)cc1OCC [Compound 416]
23 | ≥ 5.70 | CC(=O)c1ccc2n1CC(C)(C)NC21CCN(C(=O)c2ccc(OC(C)C)c(C)c2)CC1 [Compound 418]
24 | < 5.30 | Cc1cc(C(=O)N2CCC3(CC2)c2cc(C(=O)C(F)(F)F)cn2C(C)(C)CN3C)ccc1C(C)(C)O [Compound 421]
25 | ≥ 5.70 | COc1cc(C(=O)N2CCC3(CC2)c2ccc(C(=O)C(F)(F)F)n2CCN3C)ccc1C(C)(C)C [Compound 423]

The next lines start with the compound.

Row | Compound | pIC50
26 | Cc1cc(C(=O)N2CC[C@]3(c4ccc(C(F)(F)F)n4CCN3C)[C@H](F)C2)ccc1C(C)(C)O [Compound 350] | ≥ 5.70
27 | COc1cc(C(=O)N2CCC3(CC2)NC(C)(C)Cn2c(C(C)=O)ccc23)ccc1C(C)(C)C [Compound 353] | ≥ 5.70
28 | CC(C)(O)c1ccc(C(=O)N2CCC3(CC2)c2ccc(C(F)(F)F)n2CCN3CC(F)F)cc1 [Compound 354] | ≥ 5.70
29 | Cc1cc(C(=O)N2CCC3(CC2)c2ccc(C(=O)C(F)(F)F)n2C(C)CN3C)ccc1OC(C)C (centres unmarked) [Compound 355] | ≥ 5.70
30 | Cc1cc(C(=O)N2CCC3(CC2)NCCn2c(C(F)(F)F)ccc23)ccc1OC(C)C [Compound 356] | ≥ 5.70
31 | COc1nc(C(=O)N2CCC3(CC2)c2ccc(C(=O)C(F)(F)F)n2CCN3C)ccc1OC(C)C [Compound 357] | ≥ 5.70
32 | COc1cc(C(=O)N2CCC3(CC2)c2ccc(C(=O)C(F)(F)F)n2CCN3C)ccc1OCCOC(F)(F)F [Compound 360] | ≥ 5.70
33 | COc1cc(C(=O)N2CCC3(CC2)c2ccc(C(F)(F)F)n2CCN3C=O)ccc1OC(C)C [Compound 362] | < 5.30
34 | CC(C)S(=O)(=O)c1ccc(C(=O)N2CCC3(CC2)c2c(F)cc(C(F)(F)F)n2CCN3C)cc1 [Compound 363] | ≥ 5.70
35 | COc1cc(C(=O)N2CCC3(CC2)NC(C)(C)Cn2cc(C(C)=O)cc23)ccc1C(C)(C)C [Compound 364] | < 5.30
36 | CN1CCn2c(C(F)(F)F)ccc2C12CCN(C(=O)c1cc3occc3n1C)CC2 [Compound 365] | ≥ 5.70
37 | CC(C)(O)c1ccc(C(=O)N2CCC3(CC2)c2ccc(C(F)(F)F)n2CCN3CC(F)(F)F)cc1 [Compound 366] | ≥ 5.70
38 | CC(C)Oc1ccc(C(=O)N2CCC3(CC2)NCCn2c(C(F)(F)F)ccc23)c(F)c1 [Compound 367] | ≥ 5.70
39 | CN1CCn2c(C(=O)C(F)(F)F)ccc2C12CCN(C(=O)c1ccc(OCc3ccccc3)cc1)CC2 [Compound 369] | ≥ 5.70
40 | CN1CCn2c(C(F)(F)F)ccc2C12CCN(C(=O)c1ccc(C(C)(C)O)c(F)c1)CC2 [Compound 370] | ≥ 5.70
41 | Cc1cc(C(F)F)n2ncc(C(=O)N3CCC4(CC3)c3ccc(C(F)(F)F)n3CCN4C)c2n1 [Compound 371] | ≥ 5.70
42 | COc1cc(C(=O)N2CCC3(CC2)NCCn2c(C(F)(F)F)ccc23)ccc1OC(C)C [Compound 372] | ≥ 5.70
43 | O=C(c1ccc(Oc2ccccc2)cc1)N1CCC2(CC1)NCCn1c(C(F)(F)F)ccc12 [Compound 374] | < 5.30
44 | COc1cc(C(=O)N2CCC3(CC2)NC(C)(C)Cn2c(C(=O)C(F)(F)F)ccc23)ccc1OC(C)C [Compound 375] | ≥ 5.70
45 | COc1ccc(C(=O)N2CCC3(CC2)NC(C)(C)Cn2c(C(=O)C(F)(F)F)ccc23)cc1C(F)(F)F [Compound 377] | ≥ 5.70
46 | Cc1cc(N2CCCC2)n2ncc(C(=O)N3CCC4(CC3)c3ccc(C(F)(F)F)n3CCN4C)c2n1 [Compound 378] | ≥ 5.70
47 | COc1nc(C(=O)N2CCC3(CC2)c2c(Cl)cc(C(F)(F)F)n2CCN3C)ccc1OC(C)C [Compound 379] | ≥ 5.70
48 | Cc1cc(C(=O)N2CCC3(CC2)c2ccc(C(=O)C(F)(F)F)n2CCN3C)ccc1-c1cnn(C)c1 [Compound 383] | 5.30 to 5.70
49 | Cc1cc(C(=O)N2CCC3(CC2)c2c(F)cc(C(F)(F)F)n2CCN3C)ccc1C1(O)CCC1 [Compound 384] | ≥ 5.70
50 | CC[C@H](C)Oc1ccc(C(=O)N2CCC3(CC2)c2ccc(C(F)(F)C(F)(F)F)n2CCN3C)cc1OC [Compound 385] | ≥ 5.70

Row | Compound | pIC50
51 | CC(C)Oc1ccc(C(=O)N2CCC3(CC2)c2c(F)cc(C(F)(F)F)n2CCN3C)cc1CO [Compound 390] | ≥ 5.70
52 | CC(C)Oc1ccc(C(=O)N2CCC3(CC2)c2cc(C(=O)C(F)(F)F)cn2C(C)(C)CN3C)cc1F [Compound 391] | < 5.30
53 | CN1CCn2c(C(F)(F)F)ccc2C12CCN(C(=O)c1cccnc1N1CCC(F)(F)C1)CC2 [Compound 392] | 5.30 to 5.70
54 | CN1CCn2c(C(F)(F)F)ccc2C12CCN(C(=O)c1ccccc1-c1ccccc1)CC2 [Compound 393] | < 5.30
55 | Cc1cc(C(=O)N2CCC3(CC2)c2ccc(C#N)n2CCN3C)ccc1OC(C)C [Compound 394] | 5.30 to 5.70
56 | CC(C)C(O)c1ccc(C(=O)N2CCC3(CC2)c2c(F)cc(C(F)(F)F)n2CCN3C)cc1 (centres unmarked) [Compound 395] | ≥ 5.70
57 | CC1(C)Cn2c(C(=O)C(F)(F)F)ccc2C2(CCN(C(=O)c3ccc(S(=O)(=O)C(F)(F)F)cc3)CC2)N1 [Compound 396] | ≥ 5.70
58 | CCCOc1ccc(C(=O)N2CCC3(CC2)c2c(F)cc(C(F)(F)F)n2CCN3C)cc1OC [Compound 397] | ≥ 5.70
59 | Cc1cc(S(=O)(=O)C(C)C)ccc1C(=O)N1CCC2(CC1)c1ccc(C(=O)C(C)(C)C)n1CCN2C [Compound 399] | 5.30 to 5.70
60 | CN1CCn2c(C(F)(F)F)cc(Cl)c2C12CCN(C(=O)c1ccc(CC(C)(C)O)c(F)c1)CC2 [Compound 401] | ≥ 5.70
61 | CC(C)Oc1ccc(C(=O)N2CCC3(CC2)NC(C)(C)Cn2c(C(=O)C(F)(F)F)ccc23)c(F)c1 [Compound 404] | ≥ 5.70
62 | COc1cc(C(=O)N2CCC3(CC2)NCC(C)(C)n2c(C(F)(F)F)ccc23)ccc1OC(C)C [Compound 405] | ≥ 5.70
63 | CN1CCn2c(Cl)ccc2C12CCN(C(=O)c1ccc(Oc3ccccc3)cc1)CC2 [Compound 406] | 5.30 to 5.70
64 | COc1cc(C(=O)N2CCC3(CC2)c2ccc(C(F)(F)F)n2CCN3C)ccc1O [Compound 407] | 5.30 to 5.70
65 | CC(C)CCOc1ccc(C(=O)N2CCC3(CC2)NC(C)(C)Cn2c(C(=O)C(F)(F)F)ccc23)cc1 [Compound 409] | ≥ 5.70
66 | COc1cc(C(=O)N2CCC3(CC2)c2c(F)cc(C(F)(F)F)n2CCN3C)ccc1C1(O)CCC1 [Compound 410] | ≥ 5.70
67 | C[C@H]1Cn2c(C(=O)C(F)(F)F)ccc2C2(CCN(C(=O)c3ccc(C(C)(C)O)c(F)c3)CC2)N1C [Compound 411] | ≥ 5.70
68 | CC[C@@H](C)Oc1ccc(C(=O)N2CCC3(CC2)c2ccc(C(F)(F)C(F)(F)F)n2CCN3C)cc1OC [Compound 412] | ≥ 5.70
69 | CN1CCn2c(Cl)ccc2C12CCN(C(=O)c1ccc(COc3ccccc3)cc1)CC2 [Compound 414] | 5.30 to 5.70
70 | CNS(=O)(=O)c1ccc(C(=O)N2CCC3(CC2)c2c(F)cc(C(F)(F)F)n2CCN3C)cc1 [Compound 415] | ≥ 5.70
71 | CN1CCn2c(C(=O)C(F)(F)F)ccc2C12CCN(C(=O)c1cc(O)ccc1F)CC2 [Compound 417] | < 5.30
72 | CNC(=O)N1CCn2c(C(F)(F)F)ccc2C12CCN(C(=O)c1ccc(OC(C)C)c(Cl)c1)CC2 [Compound 419] | ≥ 5.70
73 | CCOc1ccc(C(=O)N2CCC3(CC2)c2c(Cl)cc(C(F)(F)F)n2CCN3C)cc1C [Compound 420] | ≥ 5.70
74 | CN1CCn2c(C(F)(F)F)ccc2C12CCN(C(=O)c1cccnc1Oc1ccccc1)CC2 [Compound 422] | ≥ 5.70
